{"source": "patent US20250205186A1", "about": "“USE OF CHLOROGENIC ACID IN PREPARING MEDICINE OR PHARMACEUTICAL COMPOSITION FOR PREVENTING OR TREATING PAIN” (SICHUAN JIUZHANG BIOLOGICAL SCIENCE AND TECHNOLOGY CO., LTD., priority 2019, published 2025)", "key": {"[1]": {"tested_on": "bone cancer pain in rats (Walker rat breast cancer cells, tibia implant model)", "experiment": "Radiant heat pain response (pain threshold) in rat tibia implant bone cancer pain model", "assay_type": "in vivo", "settings": "for Radiant heat pain threshold compared with the model group: from 7 days after administration, p<0.05", "protocol": "After two SD female rats were intraperitoneally injected with 0.5 mL cancer cells (4×10^4 cells/μL), ascites was collected on the 7th day, and the cells are rinsed 3 times with sterile 0.01 mol/L PBS to adjust to the concentration of 4×10^3 cells/μL for use. 60 SD rats were randomly selected, and after anesthesia, a small 1 cm incision was made in the upper tibial skin. A 10 mL syringe needle was used to puncture and perforate, then a 10 μL syringe was inserted into the bone marrow cavity, and 3 μL cell suspension containing 3×10^3 Walker rat breast cancer cells was slowly injected. The pinhole was sealed with bone wax, and the skin was sutured. After surgery, the rats were placed on a 37° C. hot plate for rewarming. After recovery, rats were returned to the cage for further breeding, to obtain the model group. In addition, 8 SD rats were randomly selected, and an equal volume of PBS solution was injected into the marrow cavity of the left upper tibia. The rest of the operations were the same as the model group, to obtain the sham operation group. Radiation thermal pain response: the rat was placed on a glass plate, and the affected side of the foot was irradiated with a heat radiator. The plantar side of each rat would be tested 3 times at an interval of 5 min. The response time from exposure to paw withdrawal was recorded, and the time to retract the paw was the pain threshold. […] The rats that had been successfully modeled were randomly divided into groups, eight rats for each group, that included high-dose chlorogenic acid group (80 mg/kg), middle-dose chlorogenic acid group (40 mg/kg), low-dose chlorogenic acid group (20 mg/kg), model negative group (N.S normal saline), and sham operation group (N.S normal saline). The rats were intraperitoneally injected with drugs for 15 days in a volume of 0.2 mL/10 g, once a day; the model-negative group and the sham operation group were given the same volume of normal saline. From the second day after administration, the mechanical pain hypersensitivity and radiation thermal pain were investigated before each administration, and the paw withdrawal threshold and the pain threshold were recorded."}, "NE": {"tested_on": "NE", "experiment": "NE content in brain tissue by HPLC-EC in bone cancer pain rats", "assay_type": "in vivo, rat", "settings": "for NE content in the brain tissue: after 15 days of administration", "protocol": "60 SD rats were randomly selected, and after anesthesia, a small 1 cm incision was made in the upper tibial skin. A 10 mL syringe needle was used to puncture and perforate, then a 10 μL syringe was inserted into the bone marrow cavity, and 3 μL cell suspension containing […] Walker rat breast cancer cells was slowly injected. The pinhole was sealed with bone wax, and the skin was sutured. After surgery, the rats were placed on a 37° C. hot plate for rewarming. After recovery, rats were returned to the cage for further breeding, to obtain the model group. In addition, 8 SD rats were randomly selected, and an equal volume of PBS solution was injected into the marrow cavity of the left upper tibia. The rest of the operations were the same as the model group, to obtain the sham operation group. The rats that had been successfully modeled were randomly divided into groups, eight rats for each group, that included high-dose chlorogenic acid group (80 mg/kg), middle-dose chlorogenic acid group (40 mg/kg), low-dose chlorogenic acid group (20 mg/kg), model negative group (N.S normal saline), and sham operation group (N.S normal saline). The rats were intraperitoneally injected with drugs for 15 days in a volume of 0.2 mL/10 g, once a day; the model-negative group and the sham operation group were given the same volume of normal saline. After the rats were sacrificed, the hypothalamus was quickly separated, homogenized in an ice bath with perchloric acid, and centrifuged. The supernatant was collected, and the contents of NE, DA, and 5-HT were determined by HPLC-EC method (Hou […], Wang Na, et al, Effects of progesterone on morphine-induced conditioned place preference and levels of monoamine transmitters in rat brain. Chinese Journal of Pharmacology, 2006, 22(8), 980-983)."}, "IL-6": {"tested_on": "IL-6", "experiment": "Serum IL-6 content by ELISA in bone cancer pain rats", "assay_type": "in vivo, rat", "settings": "for Cytokines IL-6 content in serum: after 15 days of administration; for Serum level of IL-6 compared with the model-negative group: after 15 days", "protocol": "60 SD rats were randomly selected, and after anesthesia, a small 1 cm incision was made in the upper tibial skin. A 10 mL syringe needle was used to puncture and perforate, then a 10 μL syringe was inserted into the bone marrow cavity, and 3 μL cell suspension containing 3×10^3 Walker rat breast cancer cells was slowly injected. The pinhole was sealed with bone wax, and the skin was sutured. After surgery, the rats were placed on a 37° C. hot plate for rewarming. After recovery, rats were returned to the cage for further breeding, to obtain the model group. In addition, 8 SD rats were randomly selected, and an equal volume of PBS solution was injected into the marrow cavity of the left upper tibia. The rest of the operations were the same as the model group, to obtain the sham operation group. The rats that had been successfully modeled were randomly divided into groups, eight rats for each group, that included high-dose chlorogenic acid group (80 mg/kg), middle-dose chlorogenic acid group (40 mg/kg), low-dose chlorogenic acid group (20 mg/kg), model negative group (N.S normal saline), and sham operation group (N.S normal saline). The rats were intraperitoneally injected with drugs for 15 days in a volume of 0.2 mL/10 g, once a day; the model-negative group and the sham operation group were given the same volume of normal saline. After the last administration, blood was collected from the eyeballs of the rats, and the animals in each group were sacrificed by neck removal. The blood samples were allowed to stand at room temperature for 20 minutes and then centrifuged. The supernatant was collected and the contents of TNF-α, IL-1β, and IL-6 in the peripheral blood serum of the […] were determined by ELISA."}}}
{"compound": "O=C(/C=C/c1ccc(O)c(O)c1)O[C@@H]1C[C@](O)(C(=O)O)C[C@@H](O)[C@H]1O", "note": "[Chlorogenic acid]", "values": [{"measurement": "Pain threshold", "setting": "[1]; 20 mg/kg ip once a day, 2 d", "result": 3.86, "unit": "s"}, {"measurement": "Pain threshold", "setting": "[1]; 20 mg/kg ip once a day, 3 d", "result": 4.11, "unit": "s"}, {"measurement": "Pain threshold", "setting": "[1]; 20 mg/kg ip once a day, 4 d", "result": 3.93, "unit": "s"}, {"measurement": "Pain threshold", "setting": "[1]; 20 mg/kg ip once a day, 5 d", "result": 9.53, "unit": "s"}, {"measurement": "Pain threshold", "setting": "[1]; 20 mg/kg ip once a day, 6 d", "result": 16.66, "unit": "s"}, {"measurement": "Pain threshold", "setting": "[1]; 20 mg/kg ip once a day, 7 d", "result": 17.89, "unit": "s"}, {"measurement": "Pain threshold", "setting": "[1]; 20 mg/kg ip once a day, 8 d", "result": 16.72, "unit": "s"}, {"measurement": "Pain threshold", "setting": "[1]; 20 mg/kg ip once a day, 9 d", "result": 15.45, "unit": "s"}, {"measurement": "Pain threshold", "setting": "[1]; 20 mg/kg ip once a day, 10 d", "result": 16.74, "unit": "s"}, {"measurement": "Pain threshold", "setting": "[1]; 20 mg/kg ip once a day, 11 d", "result": 15.52, "unit": "s"}, {"measurement": "Pain threshold", "setting": "[1]; 20 mg/kg ip once a day, 12 d", "result": 15.97, "unit": "s"}, {"measurement": "Pain threshold", "setting": "[1]; 20 mg/kg ip once a day, 13 d", "result": 16.35, "unit": "s"}, {"measurement": "Pain threshold", "setting": "[1]; 20 mg/kg ip once a day, 14 d", "result": 16.22, "unit": "s"}, {"measurement": "Pain threshold", "setting": "[1]; 20 mg/kg ip once a day, 15 d", "result": 16.75, "unit": "s"}, {"measurement": "Radiant heat pain threshold compared with the model group", "setting": "[1]; 20 mg/kg", "result": "significant difference"}, {"measurement": "Pain threshold", "setting": "[1]; 40 mg/kg ip once a day, 2 d", "result": 3.62, "unit": "s"}, {"measurement": "Pain threshold", "setting": "[1]; 40 mg/kg ip once a day, 3 d", "result": 3.52, "unit": "s"}, {"measurement": "Pain threshold", "setting": "[1]; 40 mg/kg ip once a day, 4 d", "result": 6.36, "unit": "s"}, {"measurement": "Pain threshold", "setting": "[1]; 40 mg/kg ip once a day, 5 d", "result": 12.52, "unit": "s"}, {"measurement": "Pain threshold", "setting": "[1]; 40 mg/kg ip once a day, 6 d", "result": 20.53, "unit": "s"}, {"measurement": "Pain threshold", "setting": "[1]; 40 mg/kg ip once a day, 7 d", "result": 20.49, "unit": "s"}, {"measurement": "Pain threshold", "setting": "[1]; 40 mg/kg ip once a day, 8 d", "result": 19.83, "unit": "s"}, {"measurement": "Pain threshold", "setting": "[1]; 40 mg/kg ip once a day, 9 d", "result": 21.21, "unit": "s"}, {"measurement": "Pain threshold", "setting": "[1]; 40 mg/kg ip once a day, 10 d", "result": 24.32, "unit": "s"}, {"measurement": "Pain threshold", "setting": "[1]; 40 mg/kg ip once a day, 11 d", "result": 20.59, "unit": "s"}, {"measurement": "Pain threshold", "setting": "[1]; 40 mg/kg ip once a day, 12 d", "result": 21.41, "unit": "s"}, {"measurement": "Pain threshold", "setting": "[1]; 40 mg/kg ip once a day, 13 d", "result": 22.39, "unit": "s"}, {"measurement": "Pain threshold", "setting": "[1]; 40 mg/kg ip once a day, 14 d", "result": 21.74, "unit": "s"}, {"measurement": "Pain threshold", "setting": "[1]; 40 mg/kg ip once a day, 15 d", "result": 20.88, "unit": "s"}, {"measurement": "Radiant heat pain threshold compared with the model group", "setting": "[1]; 40 mg/kg", "result": "significant difference"}, {"measurement": "Pain threshold", "setting": "[1]; 80 mg/kg ip once a day, 2 d", "result": 4.17, "unit": "s"}, {"measurement": "Pain threshold", "setting": "[1]; 80 mg/kg ip once a day, 3 d", "result": 4.24, "unit": "s"}, {"measurement": "Pain threshold", "setting": "[1]; 80 mg/kg ip once a day, 4 d", "result": 4.09, "unit": "s"}, {"measurement": "Pain threshold", "setting": "[1]; 80 mg/kg ip once a day, 5 d", "result": 5.52, "unit": "s"}, {"measurement": "Pain threshold", "setting": "[1]; 80 mg/kg ip once a day, 6 d", "result": 8.15, "unit": "s"}, {"measurement": "Pain threshold", "setting": "[1]; 80 mg/kg ip once a day, 7 d", "result": 8.22, "unit": "s"}, {"measurement": "Pain threshold", "setting": "[1]; 80 mg/kg ip once a day, 8 d", "result": 7.98, "unit": "s"}, {"measurement": "Pain threshold", "setting": "[1]; 80 mg/kg ip once a day, 9 d", "result": 7.59, "unit": "s"}, {"measurement": "Pain threshold", "setting": "[1]; 80 mg/kg ip once a day, 10 d", "result": 8.03, "unit": "s"}, {"measurement": "Pain threshold", "setting": "[1]; 80 mg/kg ip once a day, 11 d", "result": 8.05, "unit": "s"}, {"measurement": "Pain threshold", "setting": "[1]; 80 mg/kg ip once a day, 12 d", "result": 7.76, "unit": "s"}, {"measurement": "Pain threshold", "setting": "[1]; 80 mg/kg ip once a day, 13 d", "result": 7.98, "unit": "s"}, {"measurement": "Pain threshold", "setting": "[1]; 80 mg/kg ip once a day, 14 d", "result": 8.52, "unit": "s"}, {"measurement": "Pain threshold", "setting": "[1]; 80 mg/kg ip once a day, 15 d", "result": 8.38, "unit": "s"}, {"measurement": "Threshold compared with the model group (radiant heat pain section)", "setting": "[1]; 80 mg/kg, p>0.05", "result": "not statistically significant"}, {"measurement": "NE content in the brain tissue", "setting": "NE; 20 mg/kg ip once a day", "result": "0.99 ± 0.18", "unit": "nmol/g"}, {"measurement": "NE content in brain tissue compared with the model-negative group", "setting": "NE; 20 mg/kg, p<0.05", "result": "the difference was significant"}, {"measurement": "NE content in the brain tissue", "setting": "NE; 40 mg/kg ip once a day", "result": "0.91 ± 0.15", "unit": "nmol/g"}, {"measurement": "NE content in brain tissue compared with the model-negative group", "setting": "NE; 40 mg/kg, p<0.05", "result": "the difference was significant"}, {"measurement": "NE content in the brain tissue", "setting": "NE; 80 mg/kg ip once a day", "result": "1.47 ± 0.26", "unit": "nmol/g"}, {"measurement": "NE content in brain tissue compared with the model-negative group", "setting": "NE; 80 mg/kg, p>0.05", "result": "no significant difference"}, {"measurement": "Cytokines IL-6 content in serum", "setting": "IL-6; 20 mg/kg ip once a day", "result": "84.09 ± 5.16", "unit": "ng/L"}, {"measurement": "Serum level of IL-6 compared with the model-negative group", "setting": "IL-6; 20 mg/kg, p<0.05", "result": "lower than those in the model-negative group"}, {"measurement": "Cytokines IL-6 content in serum", "setting": "IL-6; 40 mg/kg ip once a day", "result": "78.73 ± 6.39", "unit": "ng/L"}, {"measurement": "Serum level of IL-6 compared with the model-negative group", "setting": "IL-6; 40 mg/kg, p<0.05", "result": "lower than those in the model-negative group"}, {"measurement": "Cytokines IL-6 content in serum", "setting": "IL-6; 80 mg/kg ip once a day", "result": "98.82 ± 4.54", "unit": "ng/L"}, {"measurement": "Serum level of IL-6 compared with the model-negative group", "setting": "IL-6; 80 mg/kg", "result": "the difference was not significant"}]}
